Data as given in patent US6620813B1, “Hydroxamate derivatives of non-steroidal anti-inflammatory drugs” (Medinox, Inc., priority 2002, dated 2003).
“Also recorded” adds a separate entry of the source.

Experiments:
Male Sprague-Dawley rats [1] = assay: Gastropathy model: total gastric lesions after a single oral dose; format: in vivo, rat
Procedure: Rats were fasted for 18 hours prior to the study. […] Drugs were administered orally as a single dose in the morning and water removed. Two and one-half hours after dosing, rats were injected with 1 ml of 10 mg/ml Evans Blue solution and sacrificed 30 minutes later. Stomachs were removed, placed in weigh boats containing cold PBS, and re-coded with letters to blind the observer. Stomachs were then opened along the greater curvature, any contents removed and then placed flat with the lumen facing up to score blue-stained lesions for gastric toxicity according to the following criteria: First, the number of small rounded lesions were counted followed by measurement of total length of linear lesions of greater than or equal to 2 mm. The two numbers obtained (round lesion number and linear length) were added together to give a total gastropathy score expressed as Total Gastric Lesions.

Male Lewis rats = assay: Adjuvant-induced arthritis: paw volume; format: in vivo, rat; conditions: oral daily on days 8-15, day 15, equimolar doses, FIG. 3
Male Sprague-Dawley rats [2] = assay: Enteropathy model: intestinal erosions and ulcers after oral dosing; conditions: diclofenac vs equimolar compound 54, vehicle PEG, FIG. 1
Procedure: Enteropathy: Male Sprague-Dawley rats (150-174 g) were obtained from Harlan. Animals were allowed to acclimatize to the facility for a minimum of 3 days and provided with food and water ad libitium. […] Drugs were administered orally either as a single dose (late morning) or twice daily between 8:00-10:00 and 4:00-5:00 beginning with a morning dose for a total of three days. Groups contained 6-8 animals per treatment. On the fourth day each rat was injected intravenously with 1 ml of a 10 mg/ml solution of Evan's Blue to stain the damaged blood vessels in intestinal erosions and ulcers. Animals were sacrificed 10 to 20 minutes after administration of Evan's Blue. The small intestine was then removed from each rat and placed in a large weigh boat in cold PBS, stored briefly in a refrigerator until boats were re-coded to blind the observer. Each intestinal segment was then opened longitudinally and, using a fiber optic light, scored for erosions and ulceration according to the following criteria:
After Evan's Blue injection, intestinal lesions are seen as shallow lesions that are moderately stained around the edge, but with little to no staining in the middle. The depth of an erosion is sometimes only detectable when the edge of the tissue is lifted to reflect light at a different angle. Erosions are usually small and round or oval, but are sometimes as much as 1-2 mm wide, and as long as 1-2 cm, running along the area of mesenteric attachment. When erosions are elongated, the length is measured in mm and divided by 2; otherwise, the erosions are merely counted individually. Note that some areas of intestinal tissue stain blue, but are not erosions. These tend to be near the mesenteric membrane attachment sites and may represent areas of increased permeability that have not progressed to the extent that cell loss has occurred.
Ulcers: An ulcer is a deep lesion penetrating the muscularis mucosa. It is usually thickened and inflamed. After Evan's Blue injection, ulcers present several different types of appearance. […] All ulcers are quantified by measuring their long dimensions in mm.

Structure (SMILES)	gastric lesion formation compared with Diclofenac (Male Sprague-Dawley rats [1]; rat model of gastropathy, equivalent doses)	less gastric lesion (total length) than an equimolar dose of diclofenac (Male Sprague-Dawley rats [1]; rats, oral single dose, relative to equimolar diclofenac, FIG. 2) [%]	inhibition of paw volume increase in the uninjected feet (anti-inflammatory activity) (Male Lewis rats)	total length of intestinal ulcers (ulcerogenic effect / ulcer formation) (Male Sprague-Dawley rats [2])
Cc1csc(=S)n1OC(=O)Cc1ccccc1Nc1c(Cl)cccc1Cl [Compound 54]	significantly less gastric lesion formation	73	equivalent efficacy to equimolar doses of Diclofenac	significantly less; also recorded: no ulcerogenic effect
O=C(O)Cc1ccccc1Nc1c(Cl)cccc1Cl [Diclofenac, diclofenac, reference compound]				substantial ulceration
